Assays:
DCN1 [1] = molecular target: T1, DCN1 (Homo sapiens, UniProt Q96GG9); experiment: Intact-protein mass spectrometric analysis of covalent complex formation, Method A; assay type: binding; conditions: for Percentage of the formation of covalent complex with DCN1 protein: 37 °C
Description: MassHunter Qualitative Analysis software (Agilent) was used to analyze the data. Intact protein masses were obtained using the maximum entropy deconvolution algorithm. The mass spectrometry data in Supplementary Figs. 1–11 were generated by Method A.
Target sequence in this assay (Q96GG9 58-259 limits assumed): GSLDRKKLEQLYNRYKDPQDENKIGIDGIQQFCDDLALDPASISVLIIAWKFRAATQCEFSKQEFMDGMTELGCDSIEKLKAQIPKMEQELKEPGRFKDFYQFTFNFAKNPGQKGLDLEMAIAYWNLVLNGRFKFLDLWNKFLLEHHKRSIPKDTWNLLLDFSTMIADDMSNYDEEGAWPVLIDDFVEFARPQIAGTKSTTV

DCN1 [2] = molecular target: T1, DCN1; experiment: Cocrystal structures of lyso-DCN1-inhibitor complexes; design: to DCN1 residues 62–251; His6 (N); TEV cleavage site (N); lysozyme residues 1–164 with C54T, C97A, A146T, D127A, R154A (fusion partner, N-terminal of DCN1); made in house; host or cells: Rosetta 2 cells (E. coli)
Experimental: Lysozyme–DCN1 gene was synthesized fusing lysozyme residues 1–164, containing mutations (C54T, C97A, A146T, D127A, and R154A), to DCN1 residues 62–251. Ligation independent cloning was utilized to clone the fused gene into an N-terminal His6–TEV expression vector. The clone was transformed into Rosetta 2 cells, grown in terrific broth at 37 °C, and expressed overnight with 0.4 mM isopropyl β-D-1-thiogalactopyranoside at 20 °C. Pelleted cells were freeze-thawed and lysed in 25 mM HEPES, pH 7.5, 150 mM NaCl, 0.1% β-mercaptoethanol and protease inhibitors. Cellular debris was removed via centrifugation. The supernatant was loaded onto a Ni-NTA (Qiagen) column at 4 °C. The column was washed with 25 mM HEPES, pH 7.5, 150 mM NaCl, and 20 mM imidazole, then protein eluted with buffer containing 300 mM imidazole. The eluate was applied to a Superdex 200 (GE Healthcare) equilibrated with 25 mM HEPES, pH 7.5, 200 mM NaCl, and 1 mM DTT. The protein was judged to be greater than 95% pure by SDS-PAGE, concentrated to 3.5 mg/mL and stored at −80 °C. Yield was 450 mg/L of expressed media.
Lyso–DCN1 protein was thawed and concentrated to 9.9 mg/mL in 25 mM HEPES, pH 7.5, 200 mM NaCl, and 1 mM DTT. Each compound was incubated with protein in a 1:1.2 protein to compound molar ratio overnight at 4 °C, then spun and setup in sitting drop vapor diffusion experiments. Crystallization drops contained 2 µL of protein–inhibitor solution and 1 µL of well solution. Crystals grew at 20 °C with well solution containing 28–33% PEG 3350 and 200 mM ammonium formate. Crystals were cryoprotected in 25 mM HEPES, pH 7.5, 200 mM NaCl, 30% PEG 3350, and 1 mM DTT.
Diffraction data were collected at a wavelength of 0.9786 Å on the APS LS-CAT 21-ID-G beamline at Argonne National Laboratory. Data were processed using HKL2000[44] and solved via molecular replacement using molrep[45] with two independent search models (lysozyme and DCN1) from PDB ID 5V83. The structures were iteratively fit and refined using Coot[46] and Buster[47]. […]
Target sequence in this assay (Q96GG9 62-251): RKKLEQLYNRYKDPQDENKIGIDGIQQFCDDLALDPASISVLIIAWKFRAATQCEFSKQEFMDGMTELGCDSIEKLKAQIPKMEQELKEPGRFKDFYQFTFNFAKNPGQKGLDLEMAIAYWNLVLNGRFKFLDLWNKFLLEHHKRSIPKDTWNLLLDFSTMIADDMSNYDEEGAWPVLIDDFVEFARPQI

Solubility = assay type: physicochemical
[3] = 10 min incubation, 1.2-fold excess inhibitor

| covalent complex formation / reaction kinetics with DCN1 protein (in words) (DCN1 [1]) | Percentage of the formation of covalent complex with DCN1 protein (DCN1 [1]; [3]) [%] | Percentage of the formation of covalent complex with DCN1 protein (DCN1 [1]; 60 min (1 h) incubation) [%] | covalent bond to Cys115 of DCN1 in the cocrystal structure (DCN1 [2]) | Percentage of the formation of covalent complex with DCN1 protein (DCN1 [1]; 180 min (3 h) incubation) [%] | Percentage of the formation of covalent complex with DCN1 protein (DCN1 [1]; 720 min (12 h) incubation) [%] | solubility (Solubility) | Compound |
| --- | --- | --- | --- | --- | --- | --- | --- |
| slower reaction kinetics than 3 or 5 | 0 | 0 | no covalent bond formed |  |  |  | CCC(=O)N[C@@H](Cc1nc2ccc(C(C)C)cc2s1)C(=O)N[C@H](CNC(=O)/C=C/CN1CCOCC1)C1CCCCC1 [compound 4] |
| slow reaction kinetics | 0 |  |  | 15 | 70 | poor solubility | CCC(=O)N[C@@H](Cc1nc2ccc(C(C)C)cc2s1)C(=O)N[C@H](CNC(=O)CCl)C1CCCCC1 [compound 2] |
| slow reaction kinetics | 0 |  |  |  | 40 | poor solubility | C=CC(=O)NC[C@@H](NC(=O)[C@H](Cc1nc2ccc(C(C)C)cc2s1)NC(=O)CC)C1CCCCC1 [compound 3] |
